Source: patent publication US6689773B2, “Uracil substituted phenyl sulfamoyl carboxamides” (BASF Aktiengesellschaft, priority 2000, dated 2004)

Assays:
Format in all cases: in vivo
[1] = tested on: ECHCG, Barnyardgrass, Echinochloa crusgalli, (L.)Beau; assay: Postemergence herbicidal evaluation (Example 147); details: rating scale 0-9, two to three weeks after treatment
Outline: (§1)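 Greenhouse postemergence test: two-week seedlings sprayed at about 0.016 to 0.032 kg/ha active. Scored visually, 0-9 scale, after two to three weeks.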

[2] = tested on: AMBEL, Ragweed, Common, Ambrosia artemiisifolia, L.; assay: Postemergence herbicidal evaluation (Example 147); details: rating scale 0-9, two to three weeks after treatment
Outline: as §1

[3] = tested on: XANST, Cocklebur, Xanthium strumariam; assay: Postemergence herbicidal evaluation (Example 147); details: rating scale 0-9, two to three weeks after treatment
Outline: as §1

[4] = tested on: ABUTH, Velvetleaf, Abutilon theophrasti, Medic.; assay: Postemergence herbicidal evaluation (Example 147); details: rating scale 0-9, two to three weeks after treatment
Outline: as §1

[5] = tested on: ALOMY, Blackgrass, Alopecurus myosuroides; assay: Postemergence herbicidal evaluation (Example 147); details: rating scale 0-9, two to three weeks after treatment
Outline: as §1

[6] = tested on: DIGSA, Crabgrass, (Hairy) L, Digitaria sanguinalis, (L)Scop; assay: Postemergence herbicidal evaluation (Example 147); details: rating scale 0-9, two to three weeks after treatment
Outline: as §1

[7] = tested on: CHEAL, Lambsquarters, Chenopodium album, L. Common; assay: Postemergence herbicidal evaluation (Example 147); details: rating scale 0-9, two to three weeks after treatment
Outline: as §1

[8] = tested on: TRZAW, Winter wheat, Tritium Aestivum, L. (Winter); assay: Postemergence herbicidal evaluation (Example 147); details: rating scale 0-9, two to three weeks after treatment
Outline: as §1

[9] = tested on: SETVI, Green foxtail, Setaria viridis, (L.)Beau; assay: Postemergence herbicidal evaluation (Example 147); details: rating scale 0-9, two to three weeks after treatment
Outline: as §1

[10] = tested on: IPOHE, Morningglory, Ivyleaf, Ipomoea hederacea, (L)Jacq.; assay: Postemergence herbicidal evaluation (Example 147); details: rating scale 0-9, two to three weeks after treatment
Outline: as §1

[11] = tested on: GLXMA, Soybean, Glycine max, (L.) Merr.; assay: Postemergence herbicidal evaluation (Example 147); details: rating scale 0-9, two to three weeks after treatment
Outline: as §1

[12] = tested on: ZEAMX, Field corn, Zea mays L.; assay: Postemergence herbicidal evaluation (Example 147); details: rating scale 0-9, two to three weeks after treatment
Outline: as §1

[13] = tested on: ECHCG, Barnyardgrass, Echinochloa crusgalli, (L.)Beau; assay: Preemergence herbicidal evaluation (Example 148); details: rating scale 0-9, two to four weeks after treatment
Outline: (§2)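 Herbicidal effect is a visual score comparing treated plants with a control for stand, vigor, size, malformation and chlorosis. Treatment was a preemergence spray (~0.125–0.250 kg/ha, aqueous acetone); assessment came 2–4 weeks later.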

[14] = tested on: AMBEL, Ragweed, Common, Ambrosia artemiisifolia, L.; assay: Preemergence herbicidal evaluation (Example 148); details: rating scale 0-9, two to four weeks after treatment
Outline: as §2

[15] = tested on: XANST, Cocklebur, Xanthium strumariam; assay: Preemergence herbicidal evaluation (Example 148); details: rating scale 0-9, two to four weeks after treatment
Outline: as §2

[16] = tested on: ABUTH, Velvetleaf, Abutilon theophrasti, Medic.; assay: Preemergence herbicidal evaluation (Example 148); details: rating scale 0-9, two to four weeks after treatment
Outline: as §2

[17] = tested on: ALOMY, Blackgrass, Alopecurus myosuroides; assay: Preemergence herbicidal evaluation (Example 148); details: rating scale 0-9, two to four weeks after treatment
Outline: as §2

[18] = tested on: DIGSA, Crabgrass, (Hairy) L, Digitaria sanguinalis, (L)Scop; assay: Preemergence herbicidal evaluation (Example 148); details: rating scale 0-9, two to four weeks after treatment
Outline: as §2

[19] = tested on: CHEAL, Lambsquarters, Chenopodium album, L. Common; assay: Preemergence herbicidal evaluation (Example 148); details: rating scale 0-9, two to four weeks after treatment
Outline: as §2

[20] = tested on: TRZAW, Winter wheat, Tritium Aestivum, L. (Winter); assay: Preemergence herbicidal evaluation (Example 148); details: rating scale 0-9, two to four weeks after treatment
Outline: as §2

[21] = tested on: SETVI, Green foxtail, Setaria viridis, (L.)Beau; assay: Preemergence herbicidal evaluation (Example 148); details: rating scale 0-9, two to four weeks after treatment
Outline: as §2

[22] = tested on: IPOHE, Morningglory, Ivyleaf, Ipomoea hederacea, (L)Jacq.; assay: Preemergence herbicidal evaluation (Example 148); details: rating scale 0-9, two to four weeks after treatment
Outline: as §2

[23] = tested on: GLXMA, Soybean, Glycine max, (L.) Merr.; assay: Preemergence herbicidal evaluation (Example 148); details: rating scale 0-9, two to four weeks after treatment
Outline: as §2

[24] = tested on: ZEAMX, Field corn, Zea mays L.; assay: Preemergence herbicidal evaluation (Example 148); details: rating scale 0-9, two to four weeks after treatment
Outline: as §2

SMILES: CC(C)N(C(C)C)S(=O)(=O)NC(=O)c1cc(-n2c(=O)cc(C(F)(F)F)n(C)c2=O)c(F)cc1Cl [Example 60]
- Postemergence herbicidal rating ECHCG ([1]; rate 0.016 kg/ha): 8.0
- Postemergence herbicidal rating ECHCG ([1]; rate 0.032 kg/ha): 7.0
- Postemergence herbicidal rating AMBEL ([2]; rate 0.016 kg/ha): 9.0
- Postemergence herbicidal rating AMBEL ([2]; rate 0.032 kg/ha): 9.0
- Postemergence herbicidal rating XANST ([3]; rate 0.016 kg/ha): 9.0
- Postemergence herbicidal rating XANST ([3]; rate 0.032 kg/ha): 9.0
- Postemergence herbicidal rating ABUTH ([4]; rate 0.016 kg/ha): 9.0
- Postemergence herbicidal rating ABUTH ([4]; rate 0.032 kg/ha): 9.0
- Postemergence herbicidal rating ALMOY ([5]; rate 0.016 kg/ha): 3.0
- Postemergence herbicidal rating ALMOY ([5]; rate 0.032 kg/ha): 3.0
- Postemergence herbicidal rating DIGSA ([6]; rate 0.016 kg/ha): 6.0
- Postemergence herbicidal rating DIGSA ([6]; rate 0.032 kg/ha): 7.0
- Postemergence herbicidal rating CHEAL ([7]; rate 0.016 kg/ha): 8.0
- Postemergence herbicidal rating CHEAL ([7]; rate 0.032 kg/ha): 9.0
- Postemergence herbicidal rating TRZAW ([8]; rate 0.016 kg/ha): 6.0
- Postemergence herbicidal rating TRZAW ([8]; rate 0.032 kg/ha): 6.0
- Postemergence herbicidal rating SETVI ([9]; rate 0.016 kg/ha): 8.0
- Postemergence herbicidal rating SETVI ([9]; rate 0.032 kg/ha): 9.0
- Postemergence herbicidal rating IPOHE ([10]; rate 0.016 kg/ha): 9.0
- Postemergence herbicidal rating IPOHE ([10]; rate 0.032 kg/ha): 9.0
- Postemergence herbicidal rating GLXMA ([11]; rate 0.016 kg/ha): 8.5
- Postemergence herbicidal rating GLXMA ([11]; rate 0.032 kg/ha): 8.5
- Postemergence herbicidal rating ZEAMX ([12]; rate 0.016 kg/ha): 8.0
- Postemergence herbicidal rating ZEAMX ([12]; rate 0.032 kg/ha): 8.0
- Preemergence herbicidal rating ECHCG ([13]; rate 0.125 kg/ha): 0.0
- Preemergence herbicidal rating ECHCG ([13]; rate 0.25 kg/ha): 4.0
- Preemergence herbicidal rating AMBEL ([14]; rate 0.125 kg/ha): 9.0
- Preemergence herbicidal rating AMBEL ([14]; rate 0.25 kg/ha): 9.0
- Preemergence herbicidal rating XANST ([15]; rate 0.125 kg/ha): 0.0
- Preemergence herbicidal rating XANST ([15]; rate 0.25 kg/ha): 4.0
- Preemergence herbicidal rating ABUTH ([16]; rate 0.125 kg/ha): 9.0
- Preemergence herbicidal rating ABUTH ([16]; rate 0.25 kg/ha): 9.0
- Preemergence herbicidal rating ALMOY ([17]; rate 0.125 kg/ha): 0.0
- Preemergence herbicidal rating ALMOY ([17]; rate 0.25 kg/ha): 0.0
- Preemergence herbicidal rating DIGSA ([18]; rate 0.125 kg/ha): 6.0
- Preemergence herbicidal rating DIGSA ([18]; rate 0.25 kg/ha): 6.0
- Preemergence herbicidal rating CHEAL ([19]; rate 0.125 kg/ha): 9.0
- Preemergence herbicidal rating CHEAL ([19]; rate 0.25 kg/ha): 9.0
- Preemergence herbicidal rating TRZAW ([20]; rate 0.125 kg/ha): 0.0
- Preemergence herbicidal rating TRZAW ([20]; rate 0.25 kg/ha): 0.0
- Preemergence herbicidal rating SETVI ([21]; rate 0.125 kg/ha): 5.0
- Preemergence herbicidal rating SETVI ([21]; rate 0.25 kg/ha): 9.0
- Preemergence herbicidal rating IPOHE ([22]; rate 0.125 kg/ha): 7.0
- Preemergence herbicidal rating IPOHE ([22]; rate 0.25 kg/ha): 6.0
- Preemergence herbicidal rating GLXMA ([23]; rate 0.125 kg/ha): 0.0
- Preemergence herbicidal rating GLXMA ([23]; rate 0.25 kg/ha): 6.0
- Preemergence herbicidal rating ZEAMX ([24]; rate 0.125 kg/ha): 0.0
- Preemergence herbicidal rating ZEAMX ([24]; rate 0.25 kg/ha): 0.0

SMILES: CN(Cc1cccc(Cl)c1)S(=O)(=O)NC(=O)c1cc(-n2c(=O)cc(C(F)(F)F)n(C)c2=O)c(F)cc1Cl [Example 55]
- Postemergence herbicidal rating ECHCG ([1]; rate 0.016 kg/ha): 7.0
- Postemergence herbicidal rating ECHCG ([1]; rate 0.032 kg/ha): 7.0
- Postemergence herbicidal rating AMBEL ([2]; rate 0.016 kg/ha): 8.0
- Postemergence herbicidal rating AMBEL ([2]; rate 0.032 kg/ha): 9.0
- Postemergence herbicidal rating XANST ([3]; rate 0.016 kg/ha): 9.0
- Postemergence herbicidal rating XANST ([3]; rate 0.032 kg/ha): 8.0
- Postemergence herbicidal rating ABUTH ([4]; rate 0.016 kg/ha): 9.0
- Postemergence herbicidal rating ABUTH ([4]; rate 0.032 kg/ha): 9.0
- Postemergence herbicidal rating ALMOY ([5]; rate 0.016 kg/ha): 2.0
- Postemergence herbicidal rating ALMOY ([5]; rate 0.032 kg/ha): 2.0
- Postemergence herbicidal rating DIGSA ([6]; rate 0.016 kg/ha): 5.0
- Postemergence herbicidal rating DIGSA ([6]; rate 0.032 kg/ha): 6.0
- Postemergence herbicidal rating CHEAL ([7]; rate 0.016 kg/ha): 7.0
- Postemergence herbicidal rating CHEAL ([7]; rate 0.032 kg/ha): 7.0
- Postemergence herbicidal rating TRZAW ([8]; rate 0.016 kg/ha): 6.0
- Postemergence herbicidal rating TRZAW ([8]; rate 0.032 kg/ha): 6.0
- Postemergence herbicidal rating SETVI ([9]; rate 0.016 kg/ha): 7.0
- Postemergence herbicidal rating SETVI ([9]; rate 0.032 kg/ha): 8.0
- Postemergence herbicidal rating IPOHE ([10]; rate 0.016 kg/ha): 8.0
- Postemergence herbicidal rating IPOHE ([10]; rate 0.032 kg/ha): 9.0
- Postemergence herbicidal rating GLXMA ([11]; rate 0.016 kg/ha): 8.0
- Postemergence herbicidal rating GLXMA ([11]; rate 0.032 kg/ha): 8.0
- Postemergence herbicidal rating ZEAMX ([12]; rate 0.016 kg/ha): 8.0
- Postemergence herbicidal rating ZEAMX ([12]; rate 0.032 kg/ha): 8.0
- Preemergence herbicidal rating ECHCG ([13]; rate 0.125 kg/ha): 5.0
- Preemergence herbicidal rating ECHCG ([13]; rate 0.25 kg/ha): 9.0
- Preemergence herbicidal rating AMBEL ([14]; rate 0.125 kg/ha): 8.0
- Preemergence herbicidal rating AMBEL ([14]; rate 0.25 kg/ha): 9.0
- Preemergence herbicidal rating XANST ([15]; rate 0.125 kg/ha): 6.0
- Preemergence herbicidal rating XANST ([15]; rate 0.25 kg/ha): 7.0
- Preemergence herbicidal rating ABUTH ([16]; rate 0.125 kg/ha): 9.0
- Preemergence herbicidal rating ABUTH ([16]; rate 0.25 kg/ha): 9.0
- Preemergence herbicidal rating ALMOY ([17]; rate 0.125 kg/ha): 0.0
- Preemergence herbicidal rating ALMOY ([17]; rate 0.25 kg/ha): 0.0
- Preemergence herbicidal rating DIGSA ([18]; rate 0.125 kg/ha): 8.0
- Preemergence herbicidal rating DIGSA ([18]; rate 0.25 kg/ha): 8.0
- Preemergence herbicidal rating CHEAL ([19]; rate 0.125 kg/ha): 8.0
- Preemergence herbicidal rating CHEAL ([19]; rate 0.25 kg/ha): 9.0
- Preemergence herbicidal rating TRZAW ([20]; rate 0.125 kg/ha): 1.0
- Preemergence herbicidal rating TRZAW ([20]; rate 0.25 kg/ha): 2.0
- Preemergence herbicidal rating SETVI ([21]; rate 0.125 kg/ha): 6.0
- Preemergence herbicidal rating SETVI ([21]; rate 0.25 kg/ha): 8.0
- Preemergence herbicidal rating IPOHE ([22]; rate 0.125 kg/ha): 8.0
- Preemergence herbicidal rating IPOHE ([22]; rate 0.25 kg/ha): 9.0
- Preemergence herbicidal rating GLXMA ([23]; rate 0.125 kg/ha): 8.0
- Preemergence herbicidal rating GLXMA ([23]; rate 0.25 kg/ha): 8.0
- Preemergence herbicidal rating ZEAMX ([24]; rate 0.125 kg/ha): 0.0
- Preemergence herbicidal rating ZEAMX ([24]; rate 0.25 kg/ha): 1.0
